Measurements published in ChEMBL document CHEMBL1156415, “Selective inhibition of porcine endogenous retrovirus replication in human cells by acyclic nucleoside phosphonates” (Antimicrob Agents Chemother, 2007).

What was measured:
[1] = system: Porcine endogenous retrovirus; test: Antiviral activity against PERV infected in human 293T cells assessed as inhibition of proximal DNA synthesis after 24 hrs by RT-PCR; type: functional, organism-based; details: Porcine type-C oncovirus, HEK-293T
[2] = Cytotoxicity against human 293T cells assessed as inhibition of cell proliferation by tetrazolium dye method; type: cell-based, HEK-293T
[3] = Inhibition of PERV reverse transcriptase from pig PK15 cells; type: cell-based, Porcine endogenous retrovirus
[4] = Inhibition of PERV reverse transcriptase from Kagoshima pig KK5 cells; parameters: species or system Porcine endogenous retrovirus
[5] = Inhibition of PERV reverse transcriptase from Kagoshima pig DRK4 cells; parameters: species or system Porcine endogenous retrovirus
[6] = biological target: Human immunodeficiency virus type 1 reverse transcriptase (Human immunodeficiency virus 1, UniProt Q72547); test: Inhibition of HIV1 recombinant reverse transcriptase

Row | SMILES | EC50 [1] [µM] | CC50 [2] [µM] | IC50 [3] [µM] | IC50 [4] [µM] | IC50 [5] [µM] | IC50 [6] [µM]
1 | Cc1cn([C@H]2C[C@H](O)[C@](CO)(N=[N+]=[N-])O2)c(=O)[nH]c1=O | > 100 | > 100 | – | – | – | –
2 | Cc1ccnc2c1NC(=O)c1cccnc1N2C1CC1 [NEVIRAPINE] | > 100 | > 100 | – | – | – | –
3 | Nc1ncnc2c1ncn2CCOCP(=O)(O)O [ADEFOVIR] | 3.4 | > 100 | – | – | – | –
4 | Nc1cc(OCCOCP(=O)(O)O)nc(N)n1 | 0.18 | > 100 | – | – | – | –
5 | C[C@H](Cn1cnc2c(N)nc(N)nc21)OCP(=O)(O)O | 0.28 | > 100 | – | – | – | –
6 | Cc1cn([C@H]2C[C@H](N=[N+]=[N-])[C@@H](COP(=O)(O)OP(=O)(O)OP(=O)(O)O)O2)c(=O)[nH]c1=O [ZIDOVUDINE TRIPHOSPHATE] | – | – | 0.059 | 0.019 | 0.02 | 0.054
7 | C#C[C@@]1(CO)C=C[C@H](n2cc(C)c(=O)[nH]c2=O)O1 [CENSAVUDINE] | > 100 | > 100 | – | – | – | –
8 | Cc1cn([C@H]2C[C@H](N=[N+]=[N-])[C@@H](CO)O2)c(=O)[nH]c1=O [ZIDOVUDINE] | 0.023 | > 10 | – | – | – | –
9 | Nc1ccn([C@@H]2CS[C@H](CO)O2)c(=O)n1 [LAMIVUDINE] | > 100 | > 100 | – | – | – | –
10 | Cc1cn([C@H]2C=C[C@@H](CO)O2)c(=O)[nH]c1=O [STAVUDINE] | 7.8 | > 100 | – | – | – | –
11 | C[C@H](Cn1cnc2c(N)ncnc21)OCP(=O)(O)O [TENOFOVIR ANHYDROUS] | 2.8 | > 100 | – | – | – | –
12 | Cc1cn([C@H]2C=C[C@@H](COP(=O)(O)OP(=O)(O)OP(=O)(O)O)O2)c(=O)[nH]c1=O [STAVUDINE TRIPHOSPHATE] | – | – | 0.45 | 0.15 | 0.17 | 0.036
